Reference: ChEMBL document CHEMBL3102851, “Trinorditerpenes from the roots of Flueggea virosa” (Bioorg Med Chem Lett, 2014)

Experiments:
[1] = Antiinflammatory activity in human neutrophils assessed as FMLP/cytochalasin B-induced elastase release after 5 mins by spectrophotometry; format: functional, cell-based; conditions: Neutrophil
[2] = Cytotoxicity against human Huh7.5 cells; format: cell-based; conditions: Huh-7
[3] = test system: Hepatitis C virus; experiment: Antiviral activity against HCV infected in human Huh7.5 cells; format: functional, organism-based, Hepacivirus hominis; conditions: Huh-7
[4] = Antiinflammatory activity in human neutrophils assessed as FMLP/cytochalasin B-induced superoxide anion generation after 5 mins by spectrophotometry; format: functional, cell-based; conditions: Neutrophil

Row | IC50 [1] | EC50 [3] | IC50 [4] | Compound | IC50 [2]
1 | 9.6 µM | 23.6 µM | > 30 µM | COc1cc2c3c(ccc2cc1C)C(C)(C)C(O)CC3 (racemic) | 64.8 µM
2 | 4.3 µM | 13 µM | 4.4 µM | Cc1cc2ccc3c(c2cc1O)CCC(=O)C3(C)C | 26.9 µM
3 | 2 µM | – | 3.2 µM | CNC(=O)c1cc(Oc2ccc(NC(=O)Nc3ccc(Cl)c(C(F)(F)F)c3)cc2)ccn1 [SORAFENIB] | –
4 | – | 9.4 µM | – | C=CCc1ccc(O)c(-c2ccc(O)c(CC=C)c2)c1 [HONOKIOL] | 58.5 µM
